ChEMBL document CHEMBL1914315, “Fijimycins A-C, three antibacterial etamycin-class depsipeptides from a marine-derived Streptomyces sp” (2011)
Converted amounts (≈) assume the structure as drawn.

What was measured:
Type in all cases: functional
[1] = system: Staphylococcus aureus; experiment: Antimicrobial activity against methicillin-resistant Staphylococcus aureus ATCC 33591; settings: read-out: MIC100
[2] = system: Staphylococcus aureus; experiment: Antimicrobial activity against methicillin-resistant Staphylococcus aureus Sanger 252; settings: Sanger 252, read-out: MIC100
[3] = system: Staphylococcus aureus; experiment: Antimicrobial activity against methicillin-resistant Staphylococcus aureus UAMS 1182; settings: read-out: MIC100

Row | SMILES | MIC [1] | MIC [2] | MIC [3]
1 | CC(C)C[C@H]1NC(=O)[C@@H](NC(=O)c2ncccc2O)[C@@H](C)OC(=O)[C@H](c2ccccc2)N(C)C(=O)[C@H](C)NC(=O)[C@H](C(C)C(C)C)N(C)C(=O)CN(C)C(=O)[C@H]2C[C@@H](O)CN2C1=O (stereo not given in full) [VIRIFOGRISEIN I] | 16 µg/mL (≈ 18.2 µM) | 16 µg/mL (≈ 18.2 µM) | 4 µg/mL (≈ 4.55 µM)
2 | CC(C)C[C@H]1NC(=O)[C@@H](NC(=O)c2ncccc2O)[C@@H](C)OC(=O)[C@H](c2ccccc2)N(C)C(=O)[C@H](CO)NC(=O)[C@H](C(C)C(C)C)N(C)C(=O)CN(C)C(=O)[C@H]2C[C@@H](O)CN2C1=O (stereo not given in full) [FIJIMYCIN C] | 32 µg/mL (≈ 35.8 µM) | – | 8 µg/mL (≈ 8.94 µM)
3 | CC(C)C[C@H]1NC(=O)[C@@H](NC(=O)c2ncccc2O)[C@@H](C)OC(=O)[C@@H](c2ccccc2)N(C)C(=O)[C@H](C)NC(=O)[C@H](C(C)C(C)C)N(C)C(=O)CN(C)C(=O)[C@H]2C[C@@H](O)CN2C1=O (stereo not given in full) [FIJIMYCIN A] | 16 µg/mL (≈ 18.2 µM) | 32 µg/mL (≈ 36.4 µM) | 4 µg/mL (≈ 4.55 µM)
4 | CC(C)C[C@H]1NC(=O)[C@@H](NC(=O)c2ncccc2O)[C@@H](C)OC(=O)[C@H](CC(C)C)N(C)C(=O)[C@H](C)NC(=O)[C@H](C(C)C(C)C)N(C)C(=O)CN(C)C(=O)[C@H]2C[C@@H](O)CN2C1=O (stereo not given in full) [FIJIMYCIN B] | > 32 µg/mL | – | > 32 µg/mL
